Source: ChEMBL document CHEMBL1134265, “2-Aryl indole NK1 receptor antagonists: optimisation of the 2-aryl ring and the indole nitrogen substituent” (Bioorg Med Chem Lett, 2001)

What was measured:
Substance-P receptor [1] = target: T1, Substance-P receptor (Homo sapiens, UniProt P25103); assay: Concentration required for displacement of [125I]-labeled substance P from cloned hNK1 receptor expressed in CHO cells(*).; format: cell-based
Substance-P receptor [2] = target: T1, Substance-P receptor; assay: Tested for displacement of [125I]-labeled substance P from cloned hNK1 receptor expressed in CHO cells (*); format: cell-based; details: concentration not given here
Gerbillinae [3] = assay: In vivo inhibitory dose against gerbil foot-tapping after iv administration prior to icv infusion of GR-73632 in vehicle-treated animals; format: functional; details: read-out: ID50 (the source's name)
Substance-P receptor [4] = target: T1, Substance-P receptor; assay: Tested for displacement of [125I]-labeled substance P from cloned hNK1 receptor expressed in CHO cells at 100 nM; format: cell-based
Gerbillinae [5] = assay: In vivo percent inhibition of gerbil foot-tapping after 3 mg/kg, iv administration prior to icv infusion of GR-73632 in vehicle-treated animals; format: functional
Gerbillinae [6] = assay: In vivo inhibitory dose against gerbil foot-tapping after iv administration prior to icv infusion of GR-73632 for a duration of 5 min in vehicle-treated animals; format: functional; details: read-out: ID50 (the source's name)

T1 sequence (P25103 whole entry): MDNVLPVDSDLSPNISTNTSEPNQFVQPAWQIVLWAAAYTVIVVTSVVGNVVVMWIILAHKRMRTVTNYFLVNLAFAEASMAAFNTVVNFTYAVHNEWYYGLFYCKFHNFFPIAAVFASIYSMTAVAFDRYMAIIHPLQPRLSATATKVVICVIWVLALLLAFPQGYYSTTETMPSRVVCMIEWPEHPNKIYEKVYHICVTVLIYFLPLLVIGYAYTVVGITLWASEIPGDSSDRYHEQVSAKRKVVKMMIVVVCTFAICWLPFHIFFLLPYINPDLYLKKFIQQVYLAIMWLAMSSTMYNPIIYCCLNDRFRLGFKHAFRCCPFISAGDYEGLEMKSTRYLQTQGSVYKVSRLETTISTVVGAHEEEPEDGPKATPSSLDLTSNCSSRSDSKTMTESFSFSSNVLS

Row | Structure (SMILES) | IC50 (Substance-P receptor [1]) | other results
1 | COc1ccccc1-c1[nH]c2ccc(C)cc2c1CCC(=O)N1CCN(c2ccccc2OC)CC1 | 82 nM | –
2 | COc1ccccc1N1CCN(C(=O)CCc2c(-c3cccc(Br)c3)[nH]c3ccc(C)cc23)CC1 | – | inhibition (Substance-P receptor [2]): 37%
3 | COc1ccccc1N1CCN(C(=O)CCc2c(-c3ccc(Cl)cc3)n(Cc3ccccc3)c3ccc(Cl)cc23)CC1 | 96 nM | –
4 | COc1ccccc1N1CCN(C(=O)CCc2c(-c3ccncc3)[nH]c3ccc(C)cc23)CC1 | – | inhibition (Substance-P receptor [2]): 58%
5 | COc1ccccc1N1CCN(C(=O)CCc2c3n(c4ccc(C)cc24)Cc2ccccc2-3)CC1 | – | inhibition (Substance-P receptor [4]): 55%
6 | COc1ccccc1N1CCN(C(=O)CCc2c(-c3ccccc3Br)[nH]c3ccc(C)cc23)CC1 | 89 nM | –
7 | COc1ccccc1N1CCN(C(=O)CCc2c(-c3ccc(Cl)cc3)n(CC3CC3)c3ccc(Cl)cc23)CC1 | 103 nM | –
8 | COc1ccccc1N1CCN(C(=O)CCc2c(-c3ccc(C(C)(C)C)cc3)[nH]c3ccc(C)cc23)CC1 | 6.3 nM | –
9 | COc1ccccc1N1CCN(C(=O)CCc2c(-c3ccc(Cl)cc3)n(C(C)C)c3ccc(Cl)cc23)CC1 | 5.2 nM | –
10 | COc1cccc(-c2[nH]c3ccc(C)cc3c2CCC(=O)N2CCN(c3ccccc3OC)CC2)c1 | 8 nM | –
11 | COc1ccccc1N1CCN(C(=O)CCc2c(-c3ccc(-c4ccccc4)cc3)[nH]c3ccc(C)cc23)CC1 | 7.6 nM | –
12 | COc1ccccc1N1CCN(C(=O)CCc2c[nH]c3ccc(C)cc23)CC1 | – | inhibition (Substance-P receptor [2]): 18%
13 | COc1ccccc1N1CCN(C(=O)CCc2c(-c3ccccc3)[nH]c3ccc(C)cc23)CC1 | 6.1 nM | –
14 | COc1ccccc1N1CCN(C(=O)CCc2c(-c3ccc(Cl)cc3)[nH]c3ccc(C)cc23)CC1 | – | inhibition in vivo at 3 mg/kg (Gerbillinae [5]): 22%
15 | Cn1c(-c2ccccn2)c(CCC(=O)N2CCC(O)(Cc3ccccc3)CC2)c2cc(Cl)ccc21 | 2.9 nM | –
16 | COc1ccccc1N1CCN(C(=O)CCc2c(-c3ccc(Br)cc3)[nH]c3ccc(C)cc23)CC1 | – | inhibition in vivo at 3 mg/kg (Gerbillinae [5]): 46%
17 | COC(=O)Cn1c(-c2ccc(Cl)cc2)c(CCC(=O)N2CCN(c3ccccc3OC)CC2)c2cc(Cl)ccc21 | 15 nM | –

The next lines start with results.

Row | IC50 (Substance-P receptor [1]) | Structure (SMILES) | other results
18 | 0.97 nM | COc1ccccc1N1CCN(C(=O)CCc2c(-c3ccc(Cl)cc3)n(CCO)c3ccc(Cl)cc23)CC1 | –
19 | 0.12 nM | Cc1ccc(-c2c(CCC(=O)N3CCC(O)(Cc4ccccc4)CC3)c3cc(Cl)ccc3n2C)cn1 | ED50 (Gerbillinae [3]): 0.68 mg/kg
20 | 1.5 nM | COc1ccc(-c2[nH]c3ccc(C)cc3c2CCC(=O)N2CCN(c3ccccc3OC)CC2)cc1 | –
21 | 0.2 nM | COc1ccccc1N1CCN(C(=O)CCc2c(-c3ccc(C(C)C)cc3)[nH]c3ccc(C)cc23)CC1 | inhibition in vivo at 3 mg/kg (Gerbillinae [5]): 100%
22 | 0.11 nM | COc1ccccc1N1CCN(C(=O)CCc2c(-c3ccc(Cl)cc3)n(C)c3ccc(C)cc23)CC1 | inhibition in vivo at 3 mg/kg (Gerbillinae [5]): 100%
23 | 0.92 nM | Cn1c(-c2cccnc2)c(CCC(=O)N2CCC(O)(Cc3ccccc3)CC2)c2cc(Cl)ccc21 | –
24 | 0.33 nM | COc1ccccc1N1CCN(C(=O)CCc2c(-c3ccc(C(C)C)cc3)n(C)c3ccc(C)cc23)CC1 | inhibition in vivo at 3 mg/kg (Gerbillinae [5]): 100%
25 | 0.44 nM | COc1ccccc1N1CCN(C(=O)CCc2c(-c3ccc(C(F)(F)F)cc3)[nH]c3ccc(C)cc23)CC1 | –
26 | 0.28 nM | COc1ccccc1N1CCN(C(=O)CCc2c(-c3ccc(Cl)cc3)n(C)c3ccc(Cl)cc23)CC1 | –
27 | 0.14 nM | COc1ccccc1N1CCN(C(=O)CCc2c(-c3ccc(C(F)(F)F)cc3)n(C)c3ccc(C)cc23)CC1 | inhibition in vivo at 3 mg/kg (Gerbillinae [5]): 93%
28 | 0.12 nM | Cn1c(-c2ccc(C(F)(F)F)cn2)c(CCC(=O)N2CCC(O)(Cc3ccccc3)CC2)c2cc(Cl)ccc21 | ED50 (Gerbillinae [3]): 0.1 mg/kg
29 | 0.14 nM | COc1ccccc1N1CCN(C(=O)CCc2c(-c3ccc(Br)cc3)n(C)c3ccc(C)cc23)CC1 | ED50 (Gerbillinae [6]): 0.5 mg/kg; inhibition in vivo at 3 mg/kg (Gerbillinae [5]): 100%
